In patent US20050019746A1, “Apoptosis-related kinase/GPCRs” (EiRx Therapeutics Limited, priority 2003, published 2005):

How the values were obtained:
Type in all cases: cell-based, human
SKOV3 cells = assay: 10-14 day Clonagenicity Assay (MTT), SKOV3; settings: for percentage survival relative to the missense, n = 1: independent experiment n = 1, dilution point of maximum toxicity; for percentage survival relative to the missense, n = 2: independent experiment n = 2, dilution point of maximum toxicity; for percentage survival relative to the missense, n = 3: independent experiment n = 3, dilution point of maximum toxicity
Procedure, shortened: (§1)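 siRNA knockdown at 2 μg/ml (4 h transfection) in serially halved seed densities; cells grown 10-14 d at 37 °C, 5% CO2, then counted by MTT conversion. Values: mean % survival vs missense oligo at the dilution giving maximum toxicity.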

A498 cells = assay: 10-14 day Clonagenicity Assay (MTT), A498; settings: for percentage survival relative to the missense, n = 1: independent experiment n = 1, dilution point of maximum toxicity; for percentage survival relative to the missense, n = 3: independent experiment n = 3, dilution point of maximum toxicity
Procedure, shortened: as §1

[1] = system: target gene mRNA in TF1 cells; assay: Knockdown by RNAi, QPCR, TF1 cells; settings: 48 hrs post transfection, relative to missense control; for % Knockdown by RNAi, TF1 − GMCSF: TF1 without GM-CSF; for % Knockdown by RNAi, TF1 + GMCSF: TF1 with GM-CSF
Experimental: In the case of TF1 cells, 2×10^5 cells/ well are transfected with 2 μg of siRNA in each well of a 24 well plate using […] DMRIE-C reagent (InVitrogen) per ml of Optimem (Gibco). Cells are simultaneously transfected in parallel with a control missense siRNA. Recombinant GM-CSF at 2 ng/ml is added to the OPTI-MEM media during transfection. The transfection media is replaced after four hours with fresh RPMI 1640 containing […] GMSCF and 10% FCS and incubated at 37° C. Twenty-four hours post-transfection, the media are changed; RPMI 1640+10% FCS containing […] GMSCF is added to 3 wells and RPMI 1640+10% FCS without GMSCF is added to the other 3 wells. These cells are harvested 48 and 72 hours post transfection for QPCR and phenotypic assays. Control TF1 cells, which are not transfected, are similarly treated. Samples are labeled T48+G, T48−G, according to the time of harvesting post-transfection and the presence (+G) or absence (−G) of GM-CSF in the media. RNA is isolated, cDNA is reverse transcribed and QPCR is performed as described above. Short Term (72 hrs post transfection) Cell Viability/Apoptosis assays employed are discussed below.
After DMRIE transfections with siRNA Oligos against the apoptosis associated genes identified herein, or controls, cells are harvested at 24 or 48 hours post transfection as stated previously. RNA is then extracted using RNeasy Miniprep columns (Qiagen 74104) after lysis on KIAshredder columns (Qiagen 79654). RNA is quantified by spectrophotometric analysis and 1 μg is reverse transcribed into cDNA using SuperScriptII RNAseH-Reverse Transcriptase (Invitrogen 18064-014). The levels of transcript are compared by QPCR as described in detail in Example 3, relative to missense controls. QPCR primers are designed to amplify a PCR product of approximately 100 to 300 nucleotides in length from the CDS, following the guidelines outlined in the Quantitect SYBR Green PCR handbook from Qiagen.
Two template standards are used for quantitative PCR assessment of mRNA levels: • 1. A control RPS13 i.e. Ribosomal Protein Sub unit 13 (NM_001017) amplified PCR product diluted to [1000,100,10,1 and 0.1 fg] respectively, used to quantify the level of transcript; • 2. RPS13 amplified from sample templates as separate PCR reactions for normalisation purposes.
The cDNA templates from appropriate cell lines transfected with either gene specific, positive control e.g. Survivin or missense control siRNA are amplified with gene-specific QPCR primers using QuantiTectSYBR Green PCR kit (Qiagen 204143) on a DNA Engine Opticon System (MJ Research) (as described in detail in Example 3). The amplification conditions include a 95° C. step for 15 min for initial activation of HotStarTaq DNA polymerase, followed by 35 cycles of (15 s at 94° C., 30 s at 60° C., 30 s at 72°). The fluorescence of the samples at 521 nm is read between the annealing and extension steps of the protocol. The melting curves are calculated at the end of the 35 cycles and confirm product homogeneity.
A standard curve is plotted using the log [template quantity] of the RPS 13 control template dilutions (as above) versus cycle number at which the fluorescence intensity measured in the well exceeds the level specified in the cycle threshold parameters (the C(T) value). An estimate of the quantity of initial template in treatment samples is determined from this plot and the amount of target mRNA present in each sample is normalized across samples by calculating the ratio of target to RPS13 for each sample.
The normalised expression values are used to estimate percentage knockdown of target with reference to the control, transfected, cells (in this case cells transfected with missense siRNA).

Substance | percentage survival relative to the missense, n = 1 (SKOV3 cells) [%] | percentage survival relative to the missense, n = 2 (SKOV3 cells) [%] | percentage survival relative to the missense, n = 3 (SKOV3 cells) [%] | percentage survival relative to the missense, n = 1 (A498 cells) [%] | percentage survival relative to the missense, n = 3 (A498 cells) [%] | % Knockdown by RNAi, TF1 − GMCSF [1] [%] | % Knockdown by RNAi, TF1 + GMCSF [1] [%]
siRNA ROCK: siRNA duplex, sense UACAUGCCUGGUGGAGAUCtt, antisense GAUCUCCACCAGGCAUGUAtt; same in Tables 9 and 11 (sense UACAUGCCUGGUGGAGAUCTT; antisense GAUCUCCACCAGGCAUGUATT; chemistry not given here) | 11.7 | 30.4 | 40.7 | 14.3 | 8.3 | – | –
siRNA P14KB: sense GCUACGGAAGCUGAUCCUCtt, antisense GAGGAUCAGCUUCCGUAGCtt (sense GCUACGGAAGCUGAUCCUCTT; antisense GAGGAUCAGCUUCCGUAGCTT; chemistry not given here) | 12.3 | 56 | 44.8 | 19.3 | 15.1 | 40 | –
siRNA Survivin: positive control siRNA, sense GAACUGGCCCUUCUUGGAGtt, antisense CUCCAAGAAGGGCCAGUUCtt (sense GAACUGGCCCUUCUUGGAGTT; antisense CUCCAAGAAGGGCCAGUUCTT; chemistry not given here) [reference compound] | 43.9 | 90.8 | 85.7 | 35.9 | 75.9 | – | 20
siRNA NTKL: siRNA duplex, sense UGUGGAGCUGAUGAAGCACtt, antisense GUGCUUCAUCAGCUCCACAtt; same in Tables 9 and 11 (sense UGUGGAGCUGAUGAAGCACTT; antisense GUGCUUCAUCAGCUCCACATT; chemistry not given here) | 6.2 | 18.8 | 14.9 | 12.3 | 7.2 | – | –
siRNA GRAF: siRNA duplex, sense GCGGAAGUUUGCAGAUUCCtt, antisense GGAAUCUGCAAACUUCCGCtt; same in Tables 9 and 11 (sense GCGGAAGUUUGCAGAUUCCTT; antisense GGAAUCUGCAAACUUCCGCTT; chemistry not given here) | 82.2 | – | – | 92.6 | 49.9 | 73 | 56
siRNA PSKH1: sense GAACCUGCACCGCUCCAUAtt, antisense UAUGGAGCGGUGCAGGUUCtt (sense GAACCUGCACCGCUCCAUATT; antisense UAUGGAGCGGUGCAGGUUCTT; chemistry not given here) | 48 | – | – | 54.8 | 10 | 60 | –
siRNA MKNK: sense UACAUGGCCCCUGAGGUAGtt, antisense CUACCUCAGGGGCCAUGUAtt (sense UACAUGGCCCCUGAGGUAGTT; antisense CUACCUCAGGGGCCAUGUATT; chemistry not given here) | 14 | – | 34.3 | 15.4 | 2.7 | – | 65
siRNA PCTAIRE: sense GUCAGUGCCCACAAAGACUtt, antisense AGUCUUUGUGGGCACUGACtt (sense GUCAGUGCCCACAAAGACUTT; antisense AGUCUUUGUGGGCACUGACTT; chemistry not given here) | 68.6 | – | – | 24.9 | 48.4 | 70 | 20
siRNA FLT4: sense GUACGGCAACCUCUCCAACtt, antisense GUUGGAGAGGUUGCCGUACtt (sense GUACGGCAACCUCUCCAACTT; antisense GUUGGAGAGGUUGCCGUACTT; chemistry not given here) | – | 61 | 56.5 | – | 10 | – | –
siRNA EKI: siRNA duplex, sense GCACUGGAUCCAAAGCAUGtt, antisense CAUGCUUUGGAUCCAGUGCtt; same in Tables 9 and 11 (sense GCACUGGAUCCAAAGCAUGTT; antisense CAUGCUUUGGAUCCAGUGCTT; chemistry not given here) | 10.5 | 19.8 | 20.6 | 21.6 | 15.4 | 58 | 46
siRNA MAPKK5: sense GAGGACAGGUUAAGCUGUGtt, antisense CACAGCUUAACCUGUCCUCtt (sense GAGGACAGGUUAAGCUGUGTT; antisense CACAGCUUAACCUGUCCUCTT; chemistry not given here) | 18.5 | – | 53.7 | 10.2 | 6.9 | 70 | –
siRNA MAK: sense GAAGCCAAGCAUGGGUGUUtt, antisense AACACCCAUGCUUGGCUUCtt (sense GAAGCCAAGCAUGGGUGUUTT; antisense AACACCCAUGCUUGGCUUCTT; chemistry not given here) | 25.6 | 40.3 | – | 19.4 | 51.6 | – | –
siRNA MPSK1: sense GGGUUAUGCCCACAGAGACtt, antisense GUCUCUGUGGGCAUAACCCtt (sense GGGUUAUGCCCACAGAGACTT; antisense GUCUCUGUGGGCAUAACCCTT; chemistry not given here) | 57.2 | – | – | 44.7 | 20.9 | – | –
